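Briefly, cells in 96-well plates were exposed to five compound concentrations for 48 h, and endpoints were estimated by linear interpolation. Abbreviation: GI50, concentration required for 50% inhibition of growth.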 The source made the active and inactive calls. No stated cut-off is given here; in the data, active = GI50 up to about 1.1 µM and inactive = higher.
Legend:
Test in all cases: NCI-60 cell line screen, 48 h
SK-MEL-2 = tested on: SK-MEL-2
SF-295 = tested on: SF-295
TK-10 = tested on: TK-10
IGROV-1 = tested on: IGROV-1
UACC-62 = tested on: UACC-62
Malme-3M = tested on: Malme-3M
NCI-H226 = tested on: NCI-H226
OVCAR-3 = tested on: OVCAR-3
M19-MEL = tested on: M19-MEL
DMS-114 = tested on: DMS-114
SF-268 = tested on: SF-268
HT-29 = tested on: HT-29
SNB-75 = tested on: SNB-75
MOLT-4 = tested on: MOLT-4
SF-539 = tested on: SF-539
SK-MEL-5 = tested on: SK-MEL-5
CCRF-CEM = tested on: CCRF-CEM
OVCAR-5 = tested on: OVCAR-5
SR = tested on: SR

Measured: GI50

CC(=O)OCC1OC(n2c(=O)n(-c3ccccc3)c(=O)c3cc(Br)cc(Br)c32)C(OC(C)=O)C(OC(C)=O)C1OC(C)=O (stereo not drawn)
inactive: SK-MEL-2 > 100 µM | SF-295 12 µM | TK-10 > 100 µM | IGROV-1 > 100 µM | UACC-62 > 100 µM | Malme-3M > 100 µM | NCI-H226 > 100 µM | OVCAR-3 > 100 µM | M19-MEL > 100 µM | DMS-114 > 100 µM | SF-268 > 100 µM | HT-29 > 100 µM | SNB-75 74.1 µM | MOLT-4 > 100 µM | SF-539 > 100 µM | SK-MEL-5 > 100 µM | CCRF-CEM > 100 µM | OVCAR-5 > 100 µM

Clc1cc(Cl)c2c(Cl)cc(Cl)c3c2c1N=S=N3
inactive: SK-MEL-2 > 100 µM | SF-295 > 100 µM | TK-10 > 100 µM | IGROV-1 > 100 µM | UACC-62 62.5 µM | Malme-3M > 100 µM | NCI-H226 > 100 µM | OVCAR-3 > 100 µM | M19-MEL > 100 µM | DMS-114 > 100 µM | SF-268 > 100 µM | HT-29 > 100 µM | SNB-75 > 100 µM | MOLT-4 2.86 µM | SF-539 > 100 µM | SK-MEL-5 > 100 µM | CCRF-CEM 52.1 µM | OVCAR-5 > 100 µM

Cc1cc2c(cc1C)[n+]([O-])c(C(=O)C/C(=N/NC(=O)c1ccccc1O)C(=O)Nc1ccccc1C(C)C)c(C)[n+]2[O-]
inactive: SK-MEL-2 > 100 µM | SF-295 > 100 µM | TK-10 > 100 µM | IGROV-1 > 100 µM | UACC-62 68.1 µM | Malme-3M > 100 µM | NCI-H226 > 100 µM | OVCAR-3 37.2 µM | M19-MEL > 100 µM | DMS-114 98.6 µM | SF-268 68.2 µM | HT-29 > 100 µM | SNB-75 88.5 µM | MOLT-4 21.9 µM | SF-539 > 100 µM | SK-MEL-5 > 100 µM | CCRF-CEM 27.3 µM | OVCAR-5 > 100 µM

COc1ccc(-c2oc3cc(O)c(OC)c(O)c3c(=O)c2OC2OC(CO)C(O)C(O)C2O)cc1 (stereo not drawn)
inactive: SK-MEL-2 > 100 µM | SF-295 > 100 µM | TK-10 > 100 µM | IGROV-1 > 100 µM | UACC-62 > 100 µM | OVCAR-3 > 100 µM | M19-MEL > 100 µM | DMS-114 > 100 µM | HT-29 > 100 µM | SNB-75 > 100 µM | MOLT-4 > 100 µM | SF-539 > 100 µM | SK-MEL-5 > 100 µM | CCRF-CEM > 100 µM

COc1cc(/C=C(\C#N)c2ccccc2)cc(OC)c1
inactive: SK-MEL-2 73.6 µM | SF-295 21.9 µM | TK-10 > 100 µM | IGROV-1 71 µM | UACC-62 32.4 µM | Malme-3M > 100 µM | NCI-H226 25.8 µM | OVCAR-3 > 100 µM | M19-MEL 50 µM | DMS-114 27.5 µM | SR 36.1 µM | SF-268 40.9 µM | HT-29 32.4 µM | MOLT-4 16.4 µM | SF-539 41.1 µM | SK-MEL-5 41.1 µM | CCRF-CEM 30.7 µM | OVCAR-5 55.1 µM

CS/C(c1ccccc1)=[N+](/C)[O-]
inactive: SK-MEL-2 > 100 µM | SF-295 > 100 µM | TK-10 > 100 µM | IGROV-1 > 100 µM | UACC-62 > 100 µM | Malme-3M > 100 µM | OVCAR-3 > 100 µM | M19-MEL > 100 µM | SR 24.2 µM | SF-268 > 100 µM | HT-29 > 75.9 µM | SNB-75 > 64.6 µM | MOLT-4 > 100 µM | SF-539 > 100 µM | SK-MEL-5 > 100 µM | CCRF-CEM > 51.2 µM | OVCAR-5 > 100 µM

C[Si](C)(C)/C(Br)=C\CCN1C(=O)CCC1O (stereo not drawn)
inactive: SK-MEL-2 > 100 µM | SF-295 > 100 µM | TK-10 > 100 µM | IGROV-1 > 100 µM | UACC-62 > 100 µM | Malme-3M > 100 µM | NCI-H226 > 100 µM | OVCAR-3 > 100 µM | M19-MEL > 100 µM | DMS-114 > 100 µM | SF-268 > 100 µM | HT-29 > 100 µM | SNB-75 34.2 µM | MOLT-4 > 100 µM | SF-539 > 100 µM | CCRF-CEM > 100 µM | OVCAR-5 > 100 µM

C/C(CC(=O)Nc1ccc(NC(=O)/C(C)=N/NS(=O)(=O)c2ccc(C)cc2)cc1)=N\NS(=O)(=O)c1ccc(C)cc1
inactive: SK-MEL-2 > 100 µM | SF-295 > 100 µM | TK-10 > 100 µM | IGROV-1 > 100 µM | UACC-62 > 100 µM | Malme-3M > 100 µM | NCI-H226 > 100 µM | OVCAR-3 > 100 µM | M19-MEL > 100 µM | DMS-114 > 100 µM | SF-268 > 100 µM | HT-29 > 100 µM | SNB-75 > 100 µM | MOLT-4 > 100 µM | SF-539 > 100 µM | SK-MEL-5 > 100 µM | CCRF-CEM > 10 µM | OVCAR-5 > 100 µM

Brc1cc2c(cc1Br)CN(c1ccccc1)C2
inactive: SK-MEL-2 > 100 µM | SF-295 > 100 µM | TK-10 > 100 µM | IGROV-1 > 100 µM | UACC-62 > 100 µM | Malme-3M > 100 µM | NCI-H226 > 100 µM | OVCAR-3 > 100 µM | M19-MEL > 100 µM | DMS-114 > 100 µM | SF-268 > 100 µM | HT-29 > 100 µM | SNB-75 > 100 µM | MOLT-4 > 100 µM | SF-539 > 100 µM | SK-MEL-5 > 100 µM | CCRF-CEM > 100 µM | OVCAR-5 > 100 µM

CCc1cc2c(O)c(c1)Cc1cc(CC)cc(c1O)Cc1cc(CC)cc(c1O)Cc1cc(CC)cc(c1O)Cc1cc(CC)cc(c1O)Cc1cc(CC)cc(c1O)Cc1cc(CC)cc(c1O)C2
inactive: SK-MEL-2 > 100 µM | SF-295 > 100 µM | TK-10 > 100 µM | IGROV-1 > 100 µM | UACC-62 > 100 µM | Malme-3M > 100 µM | OVCAR-3 > 100 µM | M19-MEL > 100 µM | DMS-114 > 100 µM | SF-268 > 100 µM | HT-29 > 100 µM | SNB-75 28.6 µM | MOLT-4 78.2 µM | SF-539 > 100 µM | SK-MEL-5 > 100 µM | CCRF-CEM > 100 µM | OVCAR-5 > 100 µM

NC(CNc1ccc(O)cc1)C(=O)O (stereo not drawn)
inactive: SK-MEL-2 60.4 µM | SF-295 > 100 µM | TK-10 > 100 µM | UACC-62 20.9 µM | Malme-3M > 100 µM | NCI-H226 > 100 µM | OVCAR-3 > 100 µM | M19-MEL 28.8 µM | DMS-114 > 100 µM | SR 87.9 µM | SF-268 > 100 µM | HT-29 > 100 µM | SNB-75 > 100 µM | MOLT-4 > 100 µM | SK-MEL-5 > 100 µM | CCRF-CEM 33.6 µM | OVCAR-5 > 100 µM

N=C(N)NS(=O)(=O)c1ccc(NC(=O)c2cccc3c(Nc4ccc(S(N)(=O)=O)cc4)c4ccccc4nc23)cc1
inactive: SK-MEL-2 > 100 µM | SF-295 > 100 µM | TK-10 > 100 µM | IGROV-1 > 100 µM | UACC-62 > 100 µM | Malme-3M > 100 µM | OVCAR-3 > 100 µM | M19-MEL > 100 µM | DMS-114 > 100 µM | SF-268 > 100 µM | HT-29 > 100 µM | SNB-75 > 100 µM | MOLT-4 > 100 µM | SF-539 > 100 µM | SK-MEL-5 > 100 µM | CCRF-CEM > 100 µM | OVCAR-5 > 100 µM

O=S1OC(c2ccccc2)(c2ccccc2)C(c2ccccc2)(c2ccccc2)O1
inactive: SF-295 14.1 µM | TK-10 > 100 µM | IGROV-1 > 100 µM | UACC-62 > 100 µM | Malme-3M > 100 µM | NCI-H226 > 100 µM | OVCAR-3 > 100 µM | M19-MEL > 86.7 µM | DMS-114 36.8 µM | SR 8.93 µM | SF-268 > 91.4 µM | HT-29 7.36 µM | SNB-75 > 56.4 µM | MOLT-4 5.26 µM | SF-539 > 100 µM | SK-MEL-5 15.4 µM | CCRF-CEM 7.01 µM | OVCAR-5 > 100 µM

CCCCCCCC(=O)OCC(C[As](=O)(O)O)OC(=O)CCCCCCC (stereo not drawn)
inactive: SF-295 16.6 µM | IGROV-1 13.8 µM | UACC-62 13.8 µM | Malme-3M 15.1 µM | NCI-H226 22.3 µM | M19-MEL 15.7 µM | DMS-114 16.4 µM | SR 16.6 µM | SF-268 14.9 µM | HT-29 17.1 µM | SNB-75 15.7 µM | MOLT-4 16.6 µM | SF-539 14.1 µM | SK-MEL-5 18.1 µM | CCRF-CEM 6.49 µM

O=C(CC(=O)c1ccccc1)c1ccccc1.O=C(CC(=O)c1ccccc1)c1ccccc1.O=C(CC(=O)c1ccccc1)c1ccccc1.[SiH4]
inactive: SF-295 4.65 µM | TK-10 5.97 µM | IGROV-1 5.4 µM | UACC-62 3.89 µM | Malme-3M 11.8 µM | NCI-H226 8.87 µM | OVCAR-3 2.42 µM | M19-MEL 3.31 µM | DMS-114 2.3 µM | SR 3.57 µM | SF-268 3.37 µM | HT-29 4.41 µM | SNB-75 10.4 µM | MOLT-4 2.59 µM | SF-539 8.67 µM | SK-MEL-5 4.66 µM | CCRF-CEM 1.14 µM | OVCAR-5 12.4 µM

Reference: ChEMBL document CHEMBL1201862, “PubChem BioAssay data set” (2004)
